According to the supplement of paper PMC4862054:

Key:
Settings in all cases: incubation time: 72 h
[1] = test system: MDA-MB-453; assay: normalised viability (% of control), CellTiter-Blue; higher = more viable cells (about 100 = DMSO control)
Method in brief: (§1)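 After 72 h on compound-loaded 384-well plates, breast cancer cell lines received 2.5 µl CellTiter-Blue reagent for 2 h at 37 °C. Fluorescence at 560/590 nm was scaled per plate so that vehicle was 100 and a positive kill control was 0. The value stands for normalised viability at a single listed concentration of the series.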

[2] = test system: MDA-MB-468; assay: as above
Method in brief: as §1

[3] = test system: BT-474; assay: as above
Method in brief: as §1

[4] = test system: Hs578T; assay: as above
Method in brief: as §1

[5] = test system: CAL-85-1; assay: as above
Method in brief: as §1

[6] = test system: MDA-MB-231; assay: as above
Method in brief: as §1

[7] = test system: CAL-120; assay: drug sensitivity score (DSS), CellTiter-Blue viability (DSS (AUC-based score)); higher = stronger viability inhibition; extreme values may be limits of the assay
Protocol: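 DSRT with the CellTiter-Blue (resazurin reduction) viability readout, fluorescence 560/590 nm, 72 h incubation. Plates were normalised to DMSO and benzethonium chloride controls. DSS is computed from the area under the fitted dose-response curve (5 or 9 concentrations).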

COc1c(C)cnc(Cn2cnc3c(Cl)nc(N)nc32)c1C [BIIB021]
normalised viability [%]
Settings	[1]	[2]	[3]	[4]	[5]	[6]
3 nM	96.5	–	–	–	81	–
10 nM	–	93.5	104	95.3	–	86.1
30 nM	79.5	–	–	–	81.5	–
100 nM	38.4	–	–	–	86.1	–
1000 nM	–	43.2	22.9	61	–	34.1
10000 nM	–	21.3	27.3	46.9	–	23.8

Settings	drug sensitivity score
[7]	23.5

CC(C)C[C@H](NC(=O)[C@H](Cc1ccccc1)NC(=O)c1cnccn1)B(O)O [Bortezomib]
normalised viability [%]
Settings	[1]	[2]	[3]	[4]	[5]	[6]
0.3 nM	106	–	–	–	104	–
1 nM	–	88.3	101	91.1	–	92.4
3 nM	112	–	–	–	92.1	–
10 nM	20.9	–	–	–	36.5	–
100 nM	–	3.55	36.6	2.89	–	2.05
1000 nM	–	2.21	22.4	0.76	–	0.27

Settings	drug sensitivity score
[7]	26.4

CS(=O)(=O)OCCCCOS(C)(=O)=O [Busulfan]
normalised viability [%]
Settings	[1]	[2]	[3]	[4]	[5]	[6]
30 nM	95.9	–	–	–	106	–
100 nM	–	99.1	107	103	–	94.3
300 nM	101	–	–	–	101	–
1000 nM	104	–	–	–	108	–
10000 nM	–	109	114	101	–	95.4
100000 nM	–	90.5	108	85.7	–	94.3

Settings	drug sensitivity score
[7]	0

C#Cc1cccc(Nc2ncnc3cc(OC)c(OCCCCCCC(=O)NO)cc23)c1 [CUDC-101]
normalised viability [%]
Settings	[1]	[2]	[3]	[4]	[5]	[6]
3 nM	99.7	–	–	–	89	–
10 nM	–	100	108	91.3	–	87.8
30 nM	67.3	–	–	–	75.5	–
100 nM	65.3	–	–	–	91	–
1000 nM	–	25.5	28.2	38.2	–	46
10000 nM	–	8.4	3.84	5.55	–	3.42

Settings	drug sensitivity score
[7]	11.8

COc1cccc2c1C(=O)c1c(O)c3c(c(O)c1C2=O)C[C@@](O)(C(C)=O)C[C@@H]3O[C@H]1C[C@H](N)[C@H](O)[C@H](C)O1 [Daunorubicin]
normalised viability [%]
Settings	[1]	[2]	[3]	[4]	[5]	[6]
0.3 nM	110	–	–	–	87.3	–
1 nM	–	102	118	111	–	101
3 nM	114	–	–	–	86.8	–
10 nM	97	–	–	–	89.1	–
100 nM	–	52.2	80.3	64.1	–	38.4
1000 nM	–	6.86	17.3	6.42	–	8.64

Settings	drug sensitivity score
[7]	13.1

CN1CCN(c2ccc3nc(-c4c(N)c5c(F)cccc5[nH]c4=O)[nH]c3c2)CC1 [Dovitinib]
normalised viability [%]
Settings	[1]	[2]	[3]	[4]	[5]	[6]
3 nM	114	–	–	–	85.3	–
10 nM	–	104	111	106	–	96.1
30 nM	82.3	–	–	–	86.4	–
100 nM	84	–	–	–	97.5	–
1000 nM	–	90.6	97.4	99.3	–	75.2
10000 nM	–	72.6	121	96	–	86.4

Settings	drug sensitivity score
[7]	0

O=c1[nH]c(=O)n([C@H]2C[C@H](O)[C@@H](CO)O2)cc1F [Floxuridine]
normalised viability [%]
Settings	[1]	[2]	[3]	[4]	[5]	[6]
3 nM	109	–	–	–	90.4	–
10 nM	–	95.5	108	127	–	106
30 nM	79	–	–	–	68.8	–
100 nM	85.3	–	–	–	62.3	–
1000 nM	–	43.7	103	58.9	–	58.1
10000 nM	–	30.3	94.8	38.9	–	47.2

Settings	drug sensitivity score
[7]	19.1

O=c1[nH]cc(F)c(=O)[nH]1 [Fluorouracil]
normalised viability [%]
Settings	[1]	[2]	[3]	[4]	[5]	[6]
3 nM	113	–	–	–	105	–
10 nM	–	99.4	108	111	–	104
30 nM	106	–	–	–	101	–
100 nM	99.1	–	–	–	115	–
1000 nM	–	103	108	106	–	97.5
10000 nM	–	76	94	55.6	–	64.7

Settings	drug sensitivity score
[7]	2.97

C[C@@H]1C=C2C(=O)O[C@@H]3CC[C@H](C1)[C@]23O [Galiellalactone]
normalised viability [%]
Settings	[1]	[2]	[3]	[4]	[5]	[6]
15 nM	114	–	–	–	95.8	–
50 nM	–	101	131	121	–	100
150 nM	91.2	–	–	–	90.5	–
500 nM	98.4	–	–	–	108	–
5000 nM	–	80.4	98.9	115	–	61.4
50000 nM	–	33.6	27.4	50.9	–	7.78

Settings	drug sensitivity score
[7]	0

COC1=C2C[C@@H](C)C[C@H](OC)[C@H](O)[C@@H](C)/C=C(\C)[C@H](OC(N)=O)[C@@H](OC)/C=C\C=C(/C)C(=O)NC(=CC1=O)C2=O [Geldanamycin]
normalised viability [%]
Settings	[1]	[2]	[3]	[4]	[5]	[6]
3 nM	121	–	–	–	104	–
10 nM	–	99	127	122	–	102
30 nM	97.3	–	–	–	87.4	–
100 nM	51.3	–	–	–	99.2	–
1000 nM	–	11.2	18.5	31.1	–	15.3
10000 nM	–	8.18	16.4	17.2	–	4.86

Settings	drug sensitivity score
[7]	25.7

O=P(O)(NCCCl)NCCCl [Ifosfamide mustard]
normalised viability [%]
Settings	[1]	[2]	[3]	[4]	[5]	[6]
3 nM	115	–	–	–	96	–
10 nM	–	98.5	128	106	–	108
30 nM	95.5	–	–	–	90.9	–
100 nM	107	–	–	–	99.1	–
1000 nM	–	93.9	117	102	–	124
10000 nM	–	86.9	119	112	–	86.6

Settings	drug sensitivity score
[7]	0
